Test results: PMC11312998, “Molecular Pro-Apoptotic Activities of Flavanone Derivatives in Cyclodextrin Complexes: New Implications for Anticancer Therapy” (International Journal of Molecular Sciences, 2024)
Values after ≈ are worked out from the molar mass of the structure shown.

Assays:
Ishikawa = test: Superoxide anion generation, DHE probe; assay type: cell-based, human; settings: IC50 concentration, 24 h
Description: (§1) The level of superoxide anion (O2^•−) was determined by microplate spectrofluorimetry with dihydroethidium (hydroethidine, DHE) (Life Technologies, Carlsbad, CA, USA), which is the most commonly used fluorogenic probe for monitoring the intracellular production of superoxide anion O2^•− [41]. […] Thanks to this shift, DHE can be used as a sensitive probe for cellular ROS. The reaction between superoxide and DHE generates a highly specific red fluorescent product, 2-hydroxyethidium (2-OH-E^+).
(§2) The cells were seeded in black 96-well fluorometric microplates at a density of 10 × 10^3 cells per well. […] After incubation, the medium was removed, the cell monolayer in the wells was washed twice with HBSS (140 mM NaCl, 5 mM KCl, 0.8 mM MgCl2, 1.8 mM CaCl2, 1 mM Na2HPO4, 10 mM HEPES and 1% glucose) and 50 μL of DHE solution in HBSS was added to each well (final probe concentration 5 μmol/L). Cells were incubated with the probe for 30 min in the dark in an incubator (37 °C), and then fluorescence was measured. The measurement was performed at the following excitation and fluorescence emission wavelengths: λex = 498 nm/λem = 582 nm. Fluorescence measurements were made on a Perkin-Elmer LS-5B spectrofluorometer (MA, USA). Fluorescence intensity values for control cells were arbitrarily set as 100%. The results are presented as percentages of control cell values, calculated relative to the fluorescence intensity of the controls (100%): sample fluorescence was calculated as Δf in relation to the controls.

MCF-7 = test: Superoxide anion generation, DHE probe; assay type: cell-based, human; settings: IC50 concentration, 24 h
Description: as §1, §2

[1] = tested on: extrinsic coagulation pathway; test: Prothrombin time (PT); assay type: biochemical, human; settings: 1–100 µmol/L
Description: (§3) Basic coagulation parameters were determined using Bio-Ksel reagents (Grudziądz, Poland): APTT reagent, calcium chloride, Bio-Ksel PT plus reagent (tromboplastin and solvent) and thrombin (3.0 UNIH/mL) for TT experiments. The methods were calibrated and the coefficient of variation (PT, APTT, TT experiments) was calculated using a calibrator (Bio-Ksel, Grudziadz, Poland), normal plasma (Bio-Ksel, Grudziądz, Poland) and water for injection (Polpharma, Gdańsk, Poland).
(§4) Control samples consisting of distilled water and methanol were tested. All methods were validated using Bio-Ksel normal plasma, which was dissolved in water for injection (Polpharma, Gdańsk, Poland). The reference values for each test are as follows: PT: 9.7–13.8 s; INR: 0.9–1.2; APTT: 28.2–42.3 s; TT: 11.0–16.5 s for 3.0 UNIH/mL of thrombin.

[2] = tested on: intrinsic coagulation pathway; test: Activated partial thromboplastin time (APTT); assay type: biochemical, human; settings: 1–100 µmol/L; values did not exceed the reference range
Description: as §3
as §4, with “The experiments were conducted in multiplicates, and their results are presented as mean ± standard deviation (SD). Control” for “Control”

[3] = Isothermal titration calorimetry (ITC) of inclusion complex formation; assay type: physicochemical; settings: DMSO, 25 °C
Description: Measurements were carried out using a MicroCal VP-ITC100 microcalorimeter equipped with a 1400 μL measurement cell. All titrations were carried out under isothermal conditions at 25 degrees C in DMSO solution, which was used as a solvent. The mixing speed during the measurements was 351 rpm. The 0.2 mM solution of the ligand (3, 3a and 5) located in the measurement cell was titrated with the cyclodextrin solution located in the syringe. Each measurement consisted of 50 injections of cyclodextrin with a volume of 5 uL and a concentration of 5 mM. The interval between individual injections was 300 s. The effect of direct interaction of the ligand with CD was calculated by subtracting the thermal effects of diluting 5 mM cyclodextrin in a pure solvent. The dilution effect of the 0.2 mM ligand solution was negligible. The results obtained were processed in the MicroCall Origin 7 software. Using a single active site model (ITC Tutorial Guide), the stability constant K of the resulting complex, its stoichiometry n and thermodynamic parameters that describe the ongoing process were determined, viz., enthalpy (ΔH), Gibbs free energy (ΔG) and entropy (ΔS).

[4] = Water solubility by UV–Vis spectrophotometry (phase solubility with cyclodextrins); assay type: physicochemical; settings: 25 °C, thermodynamic from solid, 298.15 K, without cyclodextrin, read-out: Solubility in H2O
Description: Spectrophotometric measurements were performed using a SPECORD 50 single-beam UV–Vis spectrophotometer (Analyst Jena, Thuringia, Germany). The calibration lines of the compounds tested were determined for the concentration range of 3.0 × 10^−6 M to 1 × 10^−4 M (Figure 21). The molar extinction coefficients for 3, 3a, and 5 were determined experimentally in an aqueous ethanol solution; the relevant maximum wavelengths are presented in Table 9. The influence of α-cyclodextrins, β-cyclodextrins and HP-β-cyclodextrins on the solubility of the tested ligands in water was evaluated in three measurement series. Briefly, excess ligand was introduced into closed Eppendorff tubes containing α-CD, β-CD or HP-β-CD solutions, at concentrations ranging from 1 to 90 mM for α-CD and HP-β-CD and from 1 to 15 mM for β-CD. The test tubes were stored for 10 days at a temperature of 298.15 K until equilibrium was achieved. After this time, the solutions were centrifuged using a Microcentrifuge MPW-55 at 13,000 rpm for five minutes. For testing, a clear solution was taken from above the sediment and diluted appropriately so that the spectrum was within the operating range of the spectrophotometer.

| SMILES | greater superoxide anion level relative to control (DHE probe) (Ishikawa) | greater superoxide anion level relative to control (DHE probe) (MCF-7) | prothrombin time (PT), difference compared to controls (in words) [1] | APTT time (in words) [2] | K (formation constant) ([3]; HP-β-cyclodextrin) | n (stoichiometry) ([3]; HP-β-cyclodextrin) | ΔG ([3]; HP-β-cyclodextrin) | ΔH ([3]; HP-β-cyclodextrin) | ΔS ([3]; HP-β-cyclodextrin) | K (formation constant) ([3]; α-cyclodextrin) | n (stoichiometry) ([3]; α-cyclodextrin) | ΔG ([3]; α-cyclodextrin) | ΔH ([3]; α-cyclodextrin) | ΔS ([3]; α-cyclodextrin) | K (formation constant) ([3]; β-cyclodextrin) | n (stoichiometry) ([3]; β-cyclodextrin) | ΔH ([3]; β-cyclodextrin) | ΔS ([3]; β-cyclodextrin) | solubility at 10 days [4] | ΔG ([3]; β-cyclodextrin) |
| --- | --- | --- | --- | --- | --- | --- | --- | --- | --- | --- | --- | --- | --- | --- | --- | --- | --- | --- | --- | --- |
| O=C1/C(=C/c2ccccc2)C(c2ccccc2)Oc2ccccc21 (stereo not drawn) [Compound 5] | ~30% | ~30% | No statistically significant differences | mild, statistically significant prolongation of APTT time | 5.12 × 10^3 ± 410 | 0.93 ± 0.10 | −21,172.4 J mol^−1 | -0.119 ± 0.0151 kcal/mol | 69.3 J mol^−1K^−1 | 1.39 × 10^3 ± 120 | 0.83 ± 0.17 | −17,940.2 J mol^−1 | -0.049 ± 0.00741 kcal/mol | 59.5 J mol^−1K^−1 | 2.32 × 10^3 ± 220 | 0.93 ± 0.11 | -0.0411 ± 0.012 kcal/mol | 62.5 J mol^−1K^−1 | 1.5 µM (≈ 0.469 µg/mL) | – |
| COc1cccc(/C=C2/C(=O)c3ccccc3OC2c2ccccc2)c1 (stereo not drawn) [Compound 3] | approximately 20% | approximately 20% | No statistically significant differences | mild, statistically significant prolongation of APTT time | 6.88 × 10^3 ± 430 | 1.03 ± 0.10 | −21,902.2 J mol^−1 | -0.235 ± 0.0191 kcal/mol | 70.2 J mol^−1K^−1 | 2.30 × 10^3 ± 180 | 0.90 ± 0.13 | −19,188.6 J mol^−1 | -0.092 ± 0.011 kcal/mol | 63.1 J mol^−1K^−1 | 3.68 × 10^3 ± 230 | 0.99 ± 0.11 | -0.2476 ± 0.021 kcal/mol | 64.8 J mol^−1K^−1 | 1.29 µM (≈ 0.442 µg/mL) | −20,353.7 J mol^−1 |
